Laboratory results published in article PMC6112376, “Comprehensive Analyses and Prioritization of Tox21 10K Chemicals Affecting Mitochondrial Function by in-Depth Mechanistic Studies” (Environmental Health Perspectives, 2018).
Where a name gives a salt, the structure may show the parent alone. Read-outs that look alike come from different tables or passages of the source.

Legend:
rat primary hepatocytes [1] = tested on: rat primary hepatocytes
HepG2 cells [2] = details: cited from earlier work
HepG2 cells [3] = details: for IC50: read-out: MMP assays IC50 (µM) HepG2
rat primary hepatocytes [4] = experiment: MMP assay in rat primary hepatocytes; details: for IC50: read-out: MMP assays IC50 (µM) Rat Hepatocytes
[5] = read-out: MMP assays IC50 (µM) qHTS-HepG2
[6] = read-out: MMP assays IC50 (µM), qHTS-HepG2
[7] = HepG2 cells, single number from one experiment

| Compound | MMP assays efficacy (%) Rat Hepatocytes (rat primary hepatocytes [1]) | IC50 (HepG2 cells [2]; [5]) [µM] | MMP assays efficacy (%) HepG2 (HepG2 cells [3]) | IC50 (HepG2 cells [3]) [µM] | IC50 (rat primary hepatocytes [4]) [µM] | MMP assays efficacy (%) qHTS-HepG2 (HepG2 cells [2]) [%] | MMP assays IC50 (µM) HepG2 (HepG2 cells [3]) | MMP assays IC50 (µM) Rat Hepatocytes (rat primary hepatocytes [4]) | IC50 (HepG2 cells [2]; [6]) [µM] | IC50 (rat primary hepatocytes [4]; Rattus norvegicus, Hepatocyte) [µM] | MMP assays efficacy (%) HepG2 (HepG2 cells [3]; [7]) [%] | IC50 (HepG2 cells [3]; [7]) [µM] | MMP assays IC50 (µM) Rat Hepatocytes (rat primary hepatocytes [4]; rat hepatocytes, mean ± SD of three experiments) |
| --- | --- | --- | --- | --- | --- | --- | --- | --- | --- | --- | --- | --- | --- |
| Cresyl diphenyl phosphate | -76±37% | 2.38 ± 2.32 | -91% | 3.55 | 23 ± 9 | – | – | – | – | – | – | – | – |
| CCCCC(CC)C(=O)[O-].CCCCC(CC)C(=O)[O-].[Ba+2] (centres unmarked) [Barium bis(2-ethylhexanoate)] | -43±30% | 15.4 ± 10.3 | inactive | – | – | -58±20 | inactive | inactive | – | – | – | – | – |
| CC(=O)[C@]1(O)Cc2c(O)c3c(c(O)c2[C@@H](O[C@H]2C[C@H](N)[C@H](O)[C@H](C)O2)C1)C(=O)c1ccccc1C3=O [Idarubicin hydrochloride] | -38±9% | – | inactive | – | – | -124±48 | inactive | – | 6.83 ± 1.46 | 27 ± 10.7 | – | – | – |
| Oc1cc(Cl)c(Cl)cc1Cl.[Na] [2,4,5-Trichlorophenol sodium salt] | -130±56% | 5.05 ± 2.09 | -98% | 10 | 27.3 ± 25.2 | -99±23 | – | – | – | – | – | – | – |
| O=C(N[C@@H]1N=C(c2ccccc2F)c2cccc3c2N(CC3)C1=O)c1cc2ccccc2[nH]1 | -61±16% | 8.41 | -81% | 13.8 | 17.3 | -64±4 | – | – | – | – | – | – | – |
| CC1(C)[C@@H](O)CC[C@]2(C)[C@H]3C(=O)C=C4[C@@H]5C[C@@](C)(C(=O)O)CC[C@]5(C)CC[C@@]4(C)[C@]3(C)CC[C@@H]12 [Glycyrrhetinic acid] | -44±24% | – | inactive | – | – | -88±53 | inactive | – | 40.1 ± 9.34 | 15.6 ± 2.52 | – | – | – |
| CC(=O)C1(C)CC2=C(CCCC2(C)C)CC1C (centres unmarked) | inactive | 27.3 ± 20.4 | – | – | – | -50±18 | – | – | – | – | -43 | 35.5 | inactive |
| Cc1c([N+](=O)[O-])c(C)c([N+](=O)[O-])c(C(C)(C)C)c1[N+](=O)[O-] | inactive | 20.1 ± 6.09 | -24% | 7.94 | – | -82±11 | – | inactive | – | – | – | – | – |
| CCCCCc1cc(O)c2c(c1)OC(C)(C)[C@@H]1CCC(C)=C[C@@H]21 | inactive | 4.99 ± 1.66 | -99% | 15.5 | – | -124±8 | – | inactive | – | – | – | – | – |
| CC1(C)C(/C=C(\Cl)C(F)(F)F)C1C(=O)OC(C#N)c1cccc(Oc2ccccc2)c1 (centres unmarked) [Cyhalothrin] | -55±25% | 33.6 ± 5.79 | inactive | – | – | -73±14 | inactive | – | – | 33.8 ± 9.96 | – | – | – |
| O=C(NCc1cccnc1)Nc1ccc([N+](=O)[O-])cc1 [Pyrinuron] | -108±48% | – | -81% | 28.2 | 25.8 ± 10.1 | -87±26 | – | – | 26.3 ± 1.71 | – | – | – | – |
| O=c1c(O)c(-c2ccc(O)c(O)c2)oc2cc(O)cc(O)c12 [Quercetin dihydrate] | -71±22% | – | -96% | 2.95 | 5.83 ± 4.93 | -98±4 | – | – | 6.2 ± 2.32 | – | – | – | – |
| CC=O [Acetaldehyde] | -52±35% | 18 ± 6.38 | inactive | – | 6.65 ± 4.48 | -90±14 | inactive | – | – | – | – | – | – |
